How the values were obtained:
ECHCG [1] = assay: A. Herbicidal pre-emergence action on harmful plants (Tables A); type: in vivo, Echinochloa crus-galli; settings: visual grading after ca. 3 weeks vs untreated controls, 100% = plants have died off, 0% = as control plants
Summary of the method: (§1)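 Greenhouse pre-emergence test: compound applied to the soil surface at 1280 g/ha or below, and herbicidal effect rated visually at ca. 3 weeks on a 0–100% scale against untreated plants.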

LOLRI = assay: as above; type: in vivo, Lolium rigidum; settings: visual grading after ca. 3 weeks vs untreated controls, 100% = plants have died off, 0% = as control plants
Summary of the method: as §1

MATIN [2] = assay: as above; type: in vivo, Matricaria inodora; settings: visual grading after ca. 3 weeks vs untreated controls, 100% = plants have died off, 0% = as control plants
Summary of the method: as §1

SETVI [3] = assay: as above; type: in vivo, Setaria viridis; settings: visual grading after ca. 3 weeks vs untreated controls, 100% = plants have died off, 0% = as control plants
Summary of the method: as §1

STEME [4] = assay: as above; type: in vivo, Stellaria media; settings: visual grading after ca. 3 weeks vs untreated controls, 100% = plants have died off, 0% = as control plants
Summary of the method: as §1

POAAN [5] = assay: as above; type: in vivo, Poa annua
Summary of the method: as §1

DIGSA [6] = assay: as above; type: in vivo, Digitaria sanguinalis
Summary of the method: as §1

STEME [7] = assay: B. Herbicidal post-emergence action on harmful plants (Tables B); type: in vivo, Stellaria media; settings: application rate 1280 g/ha; Table B6
Protocol: (§2) Seeds of mono- and dicotyledonous weed plants were placed in plastic pots in sandy loam soil (doubly sown with in each case one species of mono- or dicotyledonous weed plants per pot), covered with soil and cultivated in a greenhouse under controlled growth conditions. 2 to 3 weeks after sowing, the test plants were treated at the one-leaf stage. The compounds of the invention, formulated in the form of wettable powders (WP) or as emulsion concentrates (EC), were applied onto the green parts of the plants as aqueous suspension or emulsion with addition of 0.5% additive at a water application rate of 600 liters per hectare (converted). After the test plants had been kept in the greenhouse under optimum growth conditions for about 3 weeks, the activity of the preparations was rated visually in comparison to untreated controls. For example, 100% activity = the plants have died, 0% activity = like control plants. Tables B1 to B12, below, show the effects of selected compounds of the general formula (I) according to table 1 on various harmful plants and an application rate corresponding to 1280 g/ha or below obtained by the experimental procedure mentioned above. Table B1a: post-emergence activity at 1280g/ha against ABUTH in %

AMARE [8] = assay: as above; type: in vivo, Amaranthus retroflexus; settings: application rate 1280 g/ha; Table B8
Protocol: as §2

VERPE = assay: as above; type: in vivo, Veronica persica
Summary of the method: (§3)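 Activity was scored visually as % damage (100% = dead, 0% = like untreated) about 3 weeks after treatment. Plants at the one-leaf stage, 2-3 weeks old, were sprayed with WP/EC formulations plus 0.5% additive (600 L/ha water, up to 1280 g/ha). Plants were grown in sandy loam in a greenhouse.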

AMARE [9] = assay: A. Herbicidal pre-emergence action on harmful plants (Tables A); type: in vivo, Amaranthus retroflexus
Description: Seeds of mono- and dicotyledonous weed plants were sown in plastic pots (double sowings with one species of mono- and one species of dicotyledonous weed plants per pot), in sandy loam, and covered with soil. The compounds according to the invention, formulated in the form of wettable powders (WP) or as emulsifiable concentrates (EC), were applied to the surface of the covering soil as aqueous suspension or emulsion, with the addition of 0.5% of an additive, at an application rate of 6001 of water per hectare (converted). Following treatment, the pots were placed in a greenhouse and kept under optimum growth conditions for the test plants. The visual grading of the damage to the test plants was carried out after ca. 3 weeks in comparison to untreated controls (herbicidal effect in percent (%): 100% effect = plants have died off, 0% effect = as control plants). Tables A1 to A12, below, show the effects of selected compounds of the general formula (I) according to table 1 on various harmful plants and an application rate corresponding to 1280 g/ha or below obtained by the experimental procedure mentioned above. Table A1: pre-emergence activity at 1280g/ha against ABUTH in %

ALOMY = assay: as above; type: in vivo, Alopecurus myosuroides; settings: application rate 1280 g/ha; Table A9a
Summary of the method: as §1

ABUTH = assay: B. Herbicidal post-emergence action on harmful plants (Tables B); type: in vivo, Abutilon theophrasti; settings: application rate 1280 g/ha; Table B1a
Protocol: as §2

ECHCG [10] = assay: as above; type: in vivo, Echinochloa crus-galli; settings: application rate 1280 g/ha; Table B2a
Summary of the method: as §3

MATIN [11] = assay: as above; type: in vivo, Matricaria inodora; settings: application rate 1280 g/ha; Table B4a
Protocol: as §2

POAAN [12] = assay: as above; type: in vivo, Poa annua
Summary of the method: as §3

DIGSA [13] = assay: as above; type: in vivo, Digitaria sanguinalis; settings: application rate 1280 g/ha; Table B12a
Protocol: as §2

SETVI [14] = assay: as above; type: in vivo, Setaria viridis; settings: application rate 1280 g/ha; Table B5
Protocol: as §2

[15] = application rate 320 g/ha, Table A7b
[16] = application rate 1280 g/ha, visual grading after ca. 3 weeks vs untreated controls, 100% = plants have died off, 0% = as control plants
[17] = application rate 320 g/ha, Table A12b
[18] = application rate 1280 g/ha, Table A12a
[19] = application rate 1280 g/ha, Table B11a
[20] = application rate 80 g/ha, Table A7c
[21] = application rate 320 g/ha, Table A8b
[22] = application rate 80 g/ha, Table A12c
[23] = application rate 1280 g/ha, Table B7a

| Compound | pre-emergence activity against ECHCG (ECHCG [1]; application rate 320 g/ha) | pre-emergence activity against ECHCG (ECHCG [1]; application rate 1280 g/ha) | pre-emergence activity against LOLRI (LOLRI; application rate 1280 g/ha) | pre-emergence activity against MATIN (MATIN [2]; application rate 1280 g/ha) | pre-emergence activity against SETVI (SETVI [3]; application rate 1280 g/ha) | pre-emergence activity against STEME (STEME [4]; application rate 1280 g/ha) | pre-emergence activity against POAAN (POAAN [5]; [15]) | pre-emergence activity against POAAN (POAAN [5]; [16]) | pre-emergence activity against DIGSA (DIGSA [6]; [17]) | pre-emergence activity against DIGSA (DIGSA [6]; [18]) | post-emergence activity against STEME (STEME [7]) | post-emergence activity against AMARE (AMARE [8]) | post-emergence activity against VERPE (VERPE; [19]) | pre-emergence activity against LOLRI (LOLRI; application rate 320 g/ha) | pre-emergence activity against MATIN (MATIN [2]; application rate 320 g/ha) | pre-emergence activity against SETVI (SETVI [3]; application rate 320 g/ha) | pre-emergence activity against STEME (STEME [4]; application rate 320 g/ha) | pre-emergence activity against POAAN (POAAN [5]; [20]) | pre-emergence activity against ALOMY (ALOMY) | post-emergence activity against POAAN (POAAN [12]; [23]) | also measured |
| --- | --- | --- | --- | --- | --- | --- | --- | --- | --- | --- | --- | --- | --- | --- | --- | --- | --- | --- | --- | --- | --- |
| Cn1cc(C(=O)N2CCC2Cc2c(F)cccc2Cl)c(COCC(F)F)n1 (racemic) [Example I-107] | 90% | 100% | 90% | 100% | 100% | 90% | 100% | 100% | 90% | 100% | 90% | 90% | 90% | – | – | – | – | – | – | – | – |
| COCc1nn(C)cc1C(=O)N1CCCC1Cc1c(F)cccc1Cl (single isomer, unassigned) [Example I-087] | 100% | 100% | 100% | 90% | 100% | 90% | 100% | 100% | 100% | 100% | 90% | 90% | – | 100% | 90% | 100% | 90% | 100% | 90% | – | pre-emergence activity against ECHCG (ECHCG [1]; application rate 80 g/ha): 90%; pre-emergence activity against LOLRI (LOLRI; application rate 80 g/ha): 100%; pre-emergence activity against SETVI (SETVI [3]; application rate 80 g/ha): 100%; pre-emergence activity against AMARE (AMARE [9]; [21]): 90%; pre-emergence activity against AMARE (AMARE [9]; [16]): 90%; pre-emergence activity against DIGSA (DIGSA [6]; [22]): 90% |
| COCc1nn(C)cc1C(=O)N1CCCC1Cc1ccccc1C (single isomer, unassigned) [Example I-084] | 90% | 90% | 100% | 90% | 100% | 90% | 100% | 100% | 90% | 90% | 90% | – | 90% | 90% | 90% | 90% | 90% | 100% | 90% | 100% | pre-emergence activity against ECHCG (ECHCG [1]; application rate 80 g/ha): 90%; pre-emergence activity against MATIN (MATIN [2]; application rate 80 g/ha): 90%; pre-emergence activity against SETVI (SETVI [3]; application rate 80 g/ha): 90%; pre-emergence activity against AMARE (AMARE [9]; [21]): 90%; pre-emergence activity against AMARE (AMARE [9]; [16]): 90%; pre-emergence activity against DIGSA (DIGSA [6]; [22]): 90%; post-emergence activity against ABUTH (ABUTH): 90%; post-emergence activity against ECHCG (ECHCG [10]): 90%; post-emergence activity against MATIN (MATIN [11]): 90%; post-emergence activity against POAAN (POAAN [12]; application rate 320 g/ha, Table B7b): 100%; post-emergence activity against VERPE (VERPE; application rate 320 g/ha, Table B11b): 90%; post-emergence activity against DIGSA (DIGSA [13]): 90% |
| COCc1nn(C)cc1C(=O)N1CCCC1C(O)c1ccccc1F (single isomer, unassigned) [Example I-054] | 90% | 100% | 90% | 90% | 90% | 90% | 90% | 100% | 90% | 100% | – | – | – | – | 90% | 90% | 90% | 90% | – | 90% | post-emergence activity against SETVI (SETVI [14]): 90% |
| COCc1nn(C)cc1C(=O)N1CCCC1C(C)c1ccccc1F (stereo not drawn) [Example I-021] | – | 100% | 100% | 90% | 100% | – | 100% | 100% | 90% | 100% | – | – | – | 100% | – | 100% | – | – | 90% | 90% | post-emergence activity against ECHCG (ECHCG [10]): 90%; post-emergence activity against MATIN (MATIN [11]): 90%; post-emergence activity against SETVI (SETVI [14]): 90% |

— patent EP4417602A1, “SUBSTITUTED PYRAZOLE CARBOXAMIDES, SALTS THEREOF AND THEIR USE AS HERBICIDALLY ACTIVE SUBSTANCES” (Bayer AG, priority 2023, dated 2024)
